Numbered stars: 1 amine (or outer) side, 2 acyl side, 3 side chain; on linkers, the order of the positions; unused ones are H or OH. Bridge positions count the residues as written; N and C are the ends. Side chains are listed from the residue outwards. Peptide text beside a SMILES is read from it. * marks the point of attachment. C20 diacid = O=C(O)CCCCCCCCCCCCCCCCCCC(=O)*; γGlu = O=C(O)[C@H](CCC(=O)[*:2])N[*:1]
Assays:
[1] = target: T1, human amylin 3(a) receptor (human calcitonin receptor + RAMP-3) in BHK570 cells (Homo sapiens, UniProt O60896+P30988); experiment: ASSAY (II)a functional assay, human amylin receptor (CRE luciferase); assay type: cell-based
T1 construct: expressed in transfected cells
Summary of the method: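 Ligand exposure 3 h at 37 °C, 5% CO2 in DMEM with 10% FBS, 10 mM Hepes pH 7.4. cAMP-driven luciferase read by luminescence after 30 min LucLite at room temperature.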

[2] = target: T2, human calcitonin (a) receptor in BHK570 cells (Homo sapiens, UniProt P30988); experiment: ASSAY (II)a functional assay, human calcitonin receptor (CRE luciferase); assay type: cell-based; settings: read-out: hCTR funct. EC50
T2 construct: expressed in transfected cells
T2 sequence (P30988 25-474): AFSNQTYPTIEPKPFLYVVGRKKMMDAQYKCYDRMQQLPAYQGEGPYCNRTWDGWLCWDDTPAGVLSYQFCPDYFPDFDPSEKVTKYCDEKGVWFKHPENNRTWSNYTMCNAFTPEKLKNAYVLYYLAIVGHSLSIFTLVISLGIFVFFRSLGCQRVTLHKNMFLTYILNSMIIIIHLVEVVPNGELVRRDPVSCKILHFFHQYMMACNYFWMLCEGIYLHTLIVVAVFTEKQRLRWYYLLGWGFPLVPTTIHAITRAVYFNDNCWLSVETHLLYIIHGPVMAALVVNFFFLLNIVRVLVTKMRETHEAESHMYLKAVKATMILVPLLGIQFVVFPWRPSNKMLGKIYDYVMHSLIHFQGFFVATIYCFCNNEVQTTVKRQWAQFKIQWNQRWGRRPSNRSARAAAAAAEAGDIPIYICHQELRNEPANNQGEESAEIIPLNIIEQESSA
Source text: 1. Luciferase Assay Outline
Activation of calcitonin and amylin (coexpression of calcitonin receptor and receptor activity modifying proteins (RAMP)) receptors lead to increased intracellular concentrations of cAMP. Consequently, transcription is activated by promoters containing multiple copies of the cAMP response element (CRE). It is thus possible to measure amylin activity by the use of a CRE luciferase reporter gene introduced into BHK cells also expressing calcitonin or amylin receptors.
2. Construction of Calcitonin (a)- and Amylin 3(a)-Receptor/CRE-Luc Cell Line.
The cell line was further transfected with RAMP-3, using standard methods. This turns the calcitonin receptor into an amylin 3(a) receptor. Methotrexate, Neomycin, and Hygromycin are selection markers for luciferase, the calcitonin receptor, and RAMP-3, respectively.
To perform activity assays, BHK calcitonin (a) receptor- or amylin 3(a)-receptor/CRE-luc cells were seeded in white 96 well culture plates at a density of about 20.000 cells/well. […] After incubation overnight at 37° C. and 5% CO2, the growth medium was replaced by 50 μl/well assay medium (DMEM (without phenol red), Glutamax™, 10% FBS, and 10 mM Hepes, pH 7.4). Further, 50 μl/well of standard or sample in assay buffer were added. After 3 hours incubation at 37° C. and 5% CO2, the assay medium with standard or sample were removed and replaced by 100 μl/well PBS. Further, 100 μl/well LucLite™ was added. The plates were sealed and incubated at room temperature for 30 minutes. Finally, luminescence was measured on a TopCounter (Packard) in SPC (single photon counting) mode.

[3] = ASSAY (III) ThT fibrillation assay for physical stability; assay type: physicochemical
Source text: Assay (III)—ThT Fibrillation Assays for the Assessment of Physical Stability of Protein Formulations Low physical stability of a polypeptide may lead to amyloid fibril formation, which is observed as well-ordered, thread-like macromolecular structures in the sample eventually resulting in gel formation. This has traditionally been measured by visual inspection of the sample. However, that kind of measurement is very subjective and depending on the observer. Therefore, the application of a small molecule indicator probe is much more advantageous. Thioflavin T (ThT) is such a probe and has a distinct fluorescence signature when binding to fibrils [Naiki et al. (1989) Anal. […] LeVine (1999) Methods. Enzymol. […], 274-284]. The time course for fibril formation can be described by a sigmoidal curve with the following expression [Nielsen et al. (2001) Biochemistry 40, 6036-6046]; […] Here, F is the ThT fluorescence at the time t. The constant t0 is the time needed to reach 50% of maximum fluorescence. […] Few of those intermediates nucleate to form a template onto which further intermediates may assembly and the fibrillation proceeds. The lag-time corresponds to the interval in which the critical mass of nucleus is built up and the apparent rate constant is the rate with which the fibril itself is formed. Sample Preparation Samples were prepared freshly before each assay. Each sample composition is described in each example. The pH of the sample was adjusted to the desired value using appropriate amounts of concentrated NaOH and HClO4 or HCl. Thioflavin T was added to the samples from a stock solution in H2O to a final concentration of 1 μM. Sample aliquots of 200 μl were placed in a 96 well microtiter plate (Packard OptiPlate™96, white polystyrene). Usually, four or eight replica of each sample (corresponding to one test condition) were placed in one column of wells. The plate was sealed with Scotch Pad (Qiagen). Incubation and Fluorescence Measurement Incubation at given temperature, shaking and measurement of the ThT fluorescence emission were done in a Fluoroskan Ascent FL fluorescence platereader or Varioskan platereader (Thermo Labsystems). The temperature was adjusted to 37° C. The orbital shaking was adjusted to 960 rpm with an amplitude of 1 mm in all the presented data. Fluorescence measurement was done using excitation through a 444 nm filter and measurement of emission through a 485 nm filter. Each run was initiated by incubating the plate at the assay temperature for 10 min. The plate was measured every 20 minutes for a desired period of time. Between each measurement, the plate was shaken and heated as described. Data Handling The measurement points were saved in Microsoft Excel format for further processing and curve drawing and fitting was performed using GraphPad Prism. The background emission from ThT in the absence of fibrils was negligible. The data points are typically a mean of four or eight samples and shown with standard deviation error bars. Only data obtained in the same experiment (i.e. samples on the same plate) are presented in the same graph ensuring a relative measure of fibrillation between experiments. The data set may be fitted to Eq. […] However, since full sigmodial curves in this case are not always achieved during the measurement time, the degree of fibrillation is expressed as ThT fluorescence tabulated as the mean of the samples and shown with the standard deviation at various time points. Measurement of Initial and Final Concentrations The polypeptide concentration in each of the tested formulations were measured both before application in the ThT fibrillation assay (“Initial”) and after completion of the ThT fibrillation (“After ThT assay”). Concentrations were determined by reverse HPLC methods using a pramlintide standard as a reference. Before measurement after completion 150 μl was collected from each of the replica and transferred to an Eppendorf tube. These were centrifuged at 30000 G for 40 mins. […]

[4] = target: T3, human amylin receptor (membranes from Amylin 3(a)/CRE-luc cells) (Homo sapiens, UniProt O60896+P30988); experiment: ASSAY (V) binding to the human amylin receptor (SPA, 125I-rat amylin);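 also: competition binding of cell membranes (35 ng/µL) mixed with SPA beads in 384-well plates at 40 µL total volume, read by scintillation counting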
T3 construct: expressed in transfected cells
T3 sequence (P30988 25-474): T2 sequence (P30988 25-474)
T3 sequence (O60896 24-148 partner): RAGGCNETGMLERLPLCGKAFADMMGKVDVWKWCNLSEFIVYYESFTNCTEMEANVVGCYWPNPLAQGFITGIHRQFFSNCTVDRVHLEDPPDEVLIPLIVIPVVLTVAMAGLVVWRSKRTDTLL

[5] = target: T4, human calcitonin receptor (Homo sapiens, UniProt P30988); experiment: ASSAY (VII) binding to the human calcitonin receptor (SPA, 125I-Calcitonin); settings: read-out: hCTR bind IC50;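 also: cell membranes (35 ng/µL) combined with SPA beads in 40 µL of pH 7.4 Hepes buffer, 384-well format, signal counted on a TopCounter instrument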
T4 construct: expressed in transfected cells
T4 sequence (P30988 25-474): T2 sequence (P30988 25-474)

CC[C@H](C)[C@H](NC(=O)[C@H](C)NC(=O)CNC(=O)[C@H](Cc1ccccc1)NC(=O)[C@H](CC(N)=O)NC(=O)[C@@H]1CCCN1C(=O)[C@H](CO)NC(=O)[C@H](CO)NC(=O)[C@H](Cc1c[nH]cn1)NC(=O)[C@H](CCCNC(=N)N)NC(=O)[C@H](CC(C)C)NC(=O)[C@H](Cc1ccccc1)NC(=O)[C@H](CCC(=O)O)NC(=O)[C@H](C)NC(=O)[C@H](CC(C)C)NC(=O)[C@H](CCCNC(=N)N)NC(=O)[C@H](CCC(N)=O)NC(=O)[C@@H](NC(=O)[C@H](C)NC(=O)[C@@H]1CSSC[C@H](NC(=O)[C@@H](N)CCCCNC(=O)CC[C@H](NC(=O)CC[C@H](NC(=O)CCCCCCCCCCCCCCCCCCC(=O)O)C(=O)O)C(=O)O)C(=O)N[C@@H](CC(N)=O)C(=O)N[C@@H]([C@@H](C)O)C(=O)N[C@@H](C)C(=O)N[C@@H]([C@@H](C)O)C(=O)N1)[C@@H](C)O)C(=O)N1CCC[C@H]1C(=O)N[C@@H](CO)C(=O)N[C@@H](CO)C(=O)N[C@H](C(=O)N[C@@H](CC(N)=O)C(=O)N[C@H](C(=O)NCC(=O)N[C@@H](CO)C(=O)N[C@@H](CC(N)=O)C(=O)N[C@H](C(=O)N1CCC[C@H]1C(N)=O)[C@@H](C)O)C(C)C)[C@@H](C)O [Example 13] (H-K([γGlu-γGlu-C20 diacid])CNTATCATQRLAEFLRHSSPNFGAIPSSTNVGSNTP-NH2; disulfide 2-7; N-terminus assumed)
Ratio hCT/hAmylin funct. ([1]; hCTR funct. EC50 / hAmylin-R funct. EC50): 2.2
Ratio hCT/hAmylin funct. ([1]; hCTR funct. EC50 divided by hAmylin-R funct. EC50): 2.2
Ratio hCT/hAmylin funct. ([1]; hCTR funct. EC50 over hAmylin-R funct. EC50): 2.2
EC50 ([1]; human amylin receptor functional potency, assay (II), read-out: hAmylin-R funct. EC50): 213 pM
Ratio hCT/hAmylin funct. ([1]; human functional selectivity: hCTR funct. EC50 / hAmylin-R funct. EC50): 2.2
EC50 [2]: 470 pM
ThT pH 4.0 lag time (h) [3]: 45 h
IC50 ([4]; Table 4, read-out: hAmylin-R bind IC50): 264 pM
Ratio hCT/hAmylin binding ([4]; Table 5, selectivity, hCTR bind IC50 / hAmylin-R bind IC50): 1.2
Ratio hCT/hAmylin binding ([4]; Table 7, human binding selectivity, included for comparison): 1.2
IC50 [5]: 305 pM
